Read-outs that look alike come from different tables or passages of the source. Bridges are numbered along the chain shown (N, C = ends). Where no end group is shown, it is not given here.
Tests used:
[1] = system: rodent endothelial cell line (LE-II); test: Indirect immunofluorescence assay of peptide import, LE-II cells; assay type: cell-based
[2] = system: NF-κB; assay type: cell-based, murine; settings: J774, LPS 10 ng/ml, peptide 31 μM (Example II)
[3] = system: rabbits; test: Localized Shwartzman reaction (LPS-induced skin inflammatory reaction) in rabbits; assay type: in vivo, rabbit; settings: intradermal application prior to the second LPS injection
[4] = system: NF-κB complex; settings: for Inducible nuclear import of NF-κB, LPS / Inducible nuclear import of NF-κB, TNFα: LEII
[5] = system: NIH 3T3 cells; test: Cytotoxicity by staining with fluorescein diacetate/ethidium bromide; assay type: cell-based; settings: 0 to 46 μM
Experimental: (§1) Bars represent the mean±S.E.M. of at least three independent experiments done in triplicate and calculated as multiplicity of counts in the tested sample over the control sample. SA peptide within the concentration range used (0 to 46 μM) was not cytotoxic as determined by staining with fluorescein diacetate/ethidium bromide. ^20

[6] = system: NIH 3T3 cells; test: Indirect immunofluorescence assay of peptide import into NIH 3T3 cells; assay type: cell-based
Description: A 26-residue peptide (referred to as SM, listed herein as SEQ ID NO:1) that contained the predicted signal sequence of Kaposi fibroblast growth factor ^16-17 (K-FGF) was chemically synthesized. An indirect immunofluorescence assay using antibody against epitope tag-containing SM peptide was employed to follow translocation of the SM peptide to the intracellular compartments of NIH 3T3 cells. A polyclonal anti-SM peptide antibody against the SM peptide-keyhole limpet haemocyanin conjugate (Pierce) was raised in rabbits and reacted with SM peptide in ELISA (titer>1:30,000). The intracellular SM peptide was detected by an indirect imrnmunofluorescence assay using affinity-purified anti-SM peptide IgG and rhodamine-labeled anti-rabbit antibody (Kirkegaard & Perry). Briefly, confluent NIH 373 cells on the chamber slides (Nunc) were treated with either 0.5 ml SM peptide solution (100 μg ml^−1) in DMEM containing 10% FBS or with 0.5 ml DMEM containing 10% FBS only for 30 minutes at 37° C. The cells were fixed with 3.5% paraformaldehyde solution in PBS followed by 0.25% Triton X-100 in PBS and then treated with 1:20 anti-SM peptide IgG in PBS containing 0.5% bovine serum albumin (BSA) for 1.5 h. The intracellular SM peptide-antibody complexes were visualized by subsequent incubation with a rhodamine-labeled anti-rabbit polyclonal antibody for 1 h. In control systems, anti-SM peptide antibody was preabsorbed with the SM peptide. Intracellular localization of the SAα peptide was detected by immunofluorescence assay using affinity-purified anti-SM peptide IgG as described above for SM peptide. […] A ten-step z-position sectional scanning of the SM peptide-treated cells by the confocal laser scanning microscopy (CLSM) affirmed that these deposits were intracellular. […] Likewise, cells not exposed to SM peptide or cells exposed to SM peptide followed by the secondary antibody alone were negative. If cells were fixed with paraformaldehyde before peptide treatment, the cellular import of SM peptide was prevented.
To determine the rate of SM peptide import across cell membranes, a kinetic experiment was carried out with the SM peptide-treated NIH 3T3 cells. NIH 3T3 cells were treated at 37° C. with 0.5 ml SM peptide at 100 μg mL^−1 in DMEM containing 10% FBS for 1, 5, 15, 30, 60 and 120 minutes. Intracellular SM peptide deposits were detected by indirect immunofluorescence assay as described above. […] The 30-minute time point was therefore selected to determine the optimal peptide concentrations for detectable import.
To determine the optimal peptide concentration, NIH 3T3 cells were treated for 30 minutes at 37° C. with 0.5 ml SM peptide solution in DMEM containing 10% FBS at the following concentrations: 0, 2, 10, 50, 100, and 150 μg ml^−1. Intracellular localization of the SM peptide was detected by indirect immunofluorescence assay as described above. […] The cellular import was concentration-dependent and reached a plateau between 50 μg/ml and 100 μg/ml.
Transport of the SM peptide across the cell membrane was temperature-dependent. […] Accordingly, cellular import of the SM peptide resumed when the incubation temperature shifted from 4° C. to 37° C.
The intracellular SA peptide could not be tracked by an immunofluorescence assay because it was not recognized by the available anti-SM peptide antibody. However, attaching two extra amino acid residues (Met-Pro) to the carboxyl terminus of the SA peptide produced a modified SA peptide (referred to as SAα, listed herein as SEQ ID NO:4) that contained a 3-amino acid epitope tag, Leu-Met-Pro, recognized by anti-SM peptide antibody in ELISA. […] Like SA peptide, SAα peptide was mitogenic in the thymidine incorporation assay.

[7] = system: NIH 3T3 cells; test: [3H]thymidine incorporation (mitogenic response) of NIH 3T3 cells; assay type: cell-based; settings: comparable concentration ranges
Experimental: A 26-residue hybrid peptide (referred to as SA, listed herein as SEQ ID NO:3) was designed and synthesized. […] Thus, the SA peptide differs from the SM peptide only in its 7-residue carboxyl terminal “cargo” region. A functional assay was performed in which SA peptide was able to induce a mitogenic response of NIH 3T3 cells measured by [^3H]thymidine incorporation in a manner similar to aFGF bearing, the same NLS. ^18
In this functional assay, confluent 3T3 cells grown initially in DMEM containing 10% FBS were transferred to a low serum medium (DMEM containing 0.5% FBS) for 2 days. The test peptides, either SA peptide, SAα pep-tide, ANL peptide, or SM peptide, or aFGF, were added to a fresh low serum medium at the indicated concentrations at 37° C. After 16 hours, [^3H]thymidine was added and 4 hours later, the cells were washed with PBS, treated with trichloroacetic acid, solubilized with 0.15 M NaOH, and the radioactivity was determined in a liquid scintillation counter.
as §1

[8] = system: NF-κB; assay type: cell-based
[9] = system: NIH 3T3 cells; test: Import of 125I-labeled peptide into NIH 3T3 cells (cell-associated radioactivity; ATP depletion, protease treatment); assay type: cell-based; settings: for Counts in cells: 15 ng, 30 min; for Counts in cell lysates / Counts in supernatants: 5 min
Description: Intracellular localization of the membrane-permeable peptide was also shown by treatment of cells with proteases following peptide import. For this experiment, 41-residue peptide (referred to as SEP and listed herein as SEQ ID NO:6) that contained the same hydrophobic sequence as SM peptide followed by the sequence of K-FGF(129-153) was designed and synthesized. The latter was present in KP peptide not containing hydrophobic sequence that served as the control for the membrane-permeable SKP peptide. […] The intracellular ^125I-SKP peptide was resistant to the action of proteases.
Both SKP and KP peptides were radiolabeled with ^125I by the lodogen method (Pierce). The specific activities of both peptides were similar (2.5×10^4 cpm/ng). NIH 3T3 cells were subcultured on a 60-mm dish and incubated at 37° C. for 3 days. The confluent monolayers (1.6×10^6 cells) on each dish were then washed twice with PBS and treated with 15 ng of ^125I-SKP or ^125I-KP peptide at 37° C., for the indicated time. The cells were washed eight times with PBS and twice with 2 M NaCl buffer (pH 7.5) until no radioactivity could be detected in the washings. The washed cells were lysed in lysis buffer (10 mM Tris-HCl, pH 7.0, 0.1 mM EDTA, 1 mM phenylmethylsulphony fluoride, 1 mM dithiothreitol, and 1% Triton X-100) and the radioactivity in the cell lysates was counted in a Packard auto-gamma counter. In some experiments, the washed cells were further treated with pronase (1 mg/ml) or trypsin (0.05%) solution in DMEM for 5 min at 37° C. The supernatants and cells were separated and their radioactivities were counted separately. For ATP depletion assay, cells were incubated with 5 μglml antimycin, 6.5 mM 2-deoxyglucose, and 10 mM glucono-δ-lactone in DMEM for 2 h at 37° C. before addition of ^125I-SKP peptide. The levels of ATP in ATP-depleted cells and normal cells were determined by ATP bioluminescent assay kit (Sigma).
For ATP depletion assay, confluent NIH 3T3 cells (1.6×10^6 cells) in each dish were treated with or without ATP depleting reagents (antimycin, 2deoxyglucose, and glucono-δ-lactone) for 2 h at 37° C. Cells were then treated with 15 ng of ^125I-SKP peptide for 30 min at 37° C. After complete removal of extracellular^125I-labeled peptides, the radioactivity in the cell lysates was counted. For the assay using proteases, cells were treated with ^125 I-SKP peptide and washed as described above. The ^125I-SKF peptide-associated cells were then treated with pronase (1 mg/ml), trypsin (0.05%), or diluent for 5 min at 37° C. The radio-activities in the cell lysates and supernatants were counted separately. Data in Table 1 represent the mean the mean ±SEM of triplicate determinations of a single experiment. The experiment was repeated three times with similar results.

[10] = system: baby hamster kidney-21 cells; test: Indirect immunofluorescence assay of SM peptide import, baby hamster kidney-21 cells; assay type: cell-based
[11] = system: human umbilical vein endothelial cells; test: Indirect immunofluorescence assay of SM peptide import, HUVEC; assay type: cell-based

## SN50 peptide: 26-residue peptide: K-FGF signal sequence (residues 1-16) and NLS of NF-kB p50 subunit (residues 17-26) (AAVALLPAVLLALLAPVNRKRNKLMP)
[1]
  Intracellular distribution compared to intracellular SM peptide: more nuclear staining pattern
[2]
  Nuclear import of NF-κB induced by LPS: blocked
[3]
  Localized skin inflammatory reaction (Evans' Blue area): greatly diminished area of blue discoloration
[4]; LPS 10 ng/ml (Example II)
  Inducible nuclear import of NF-κB, LPS: inhibited
[4]; LPS 10 ng/ml (Example III)
  Inducible nuclear import of NF-κB, LPS: inhibited
[4]; TNFα 20 U/ml (Example III)
  Inducible nuclear import of NF-κB, TNFα: inhibited
[4]; TNFα 100 U/ml (Example II)
  Inducible nuclear import of NF-κB, TNFα: inhibited

## AAVALLPAVLLALLAPAAANYKKPKL [SA peptide]
[5]
  Cytotoxicity: not cytotoxic

## SAα peptide: SA peptide with two extra residues (Met-Pro) at the carboxyl terminus (AAVALLPAVLLALLAPAAANYKKPKLMP; 1..16 Note/label = a (“Signal peptide amino acid sequence of K-FGF”))
[6]; SAα-treated NIH 3T3 cells
  Intracellular peptide staining with anti-SM peptide antibody: punctate staining pattern
[7]
  Mitogenic activity in thymidine incorporation assay: mitogenic

## Asn-Tyr-Lys-Lys-Pro-Lys-Leu (NYKKPKL) (1..7 Note/label = a (“Nuclear localization sequence of aFGF”)) [ANL peptide, 7-residue peptide representing the NLS of aFGF, reference compound]
[7]
  Mitogenic activity in thymidine incorporation assay: Neither control peptide showed any significant mitogenic activity

## cSN50 peptide: cyclic peptide designed by inserting two cysteines flanking the NLS motif of SN50 (AAVALALLPAVLLALLAPCYVQRKRQKLMPC; disulfide 19-31 (inferred))
[8]
  SEB-induced NF-κB nuclear import: increasing inhibition of SEB-induced NF-κB nuclear import
[4]; cSN50 versus SN50
  Potency relative to the prototypical SN50 peptide (phosphoimager analysis): 3-10 times

## SKP peptide: 41-residue peptide: same hydrophobic sequence as SM peptide followed by K-FGF(129-153); tested 125I-radiolabeled (AAVALLPAVLLALLAPEILLPNNYNAYESYKYPGMFIALSK; also: 125I radiolabel, site not given here)
[9]; 15 ng 125I-peptide, 37° C.
  Radioactivity detected in peptide-treated cells: Substantial radioactivity was detected
[9]; ATP-depleted cells, 37° C.
  Counts in cells: 22,266 ± 3,602 cpm/1.6 × −10′ cells
[9]; no protease (diluent), 37° C.
  Counts in cell lysates: 21,323 ± 853
  Counts in supernatants: 2,966 ± 838
[9]; pronase 1 mg/ml, 37° C.
  Counts in cell lysates: 21,791 ± 1,953
  Counts in supernatants: 1,979 ± 75
[9]; pronase or trypsin
  Loss of cell-associated radioactivity after protease treatment: no significant loss of cell-associated radioactivity was observed
[9]; trypsin 0.05%, 37° C.
  Counts in supernatants: 655 ± 70
[9]; untreated (ATP-positive) cells, 37° C.
  Counts in cells: 20,189 ± 2,109 cpm/1.6 × −10′ cells

## SM peptide: 26-residue peptide: K-FGF signal sequence, spacer, epitope tag; mutated, loss-of-function NLS; cell-permeable control (AAVALLPAVLLALLAPAAADQNQLMP; 1..16 Note/label = a (“Signal peptide amino acid sequence of K-FGF”))
[6]; 100 μg/mL, 37° C.
  Time at which intracellular staining plateaued: about 30 minutes
  Time at which intracellular staining was first observed: ≤ 5 min
[6]; 100 μg/ml, 30 minutes, 4° C.
  Immunofluorescence staining at 4° C.: No immunofluorescence staining was observed
[6]; 100 μg/ml, 30 minutes, 22° C. or 37° C.
  Immunofluorescence staining at 22° C. or 37° C.: numerous punctate deposits
[6]; 100 μg/ml, 30 minutes, 37° C.
  Intracellular peptide deposits by indirect immunofluorescence: intracellular deposits were observed in almost all cells
[6]; 30 minutes, 37° C.
  Concentration giving detectable intracellular peptide: 2 µg/mL
  Concentration giving detectable intracellular peptide (molar): about 800 nM
[6]; cells fixed before treatment
  Cellular import in cells fixed with paraformaldehyde before peptide treatment: prevented
[10]
  Intracellular localization by indirect immunofluorescence: the same results as with NIH 3T3 cells
[11]
  Intracellular localization by indirect immunofluorescence: the same results as with NIH 3T3 cells
[1]
  Intracellular localization by indirect immunofluorescence: the same results as with NIH 3T3 cells
[7]
  Mitogenic activity in thymidine incorporation assay: Neither control peptide showed any significant mitogenic activity
